Twelve molecules from patent publication US8912200B2, “Alkynyl substituted pyrimidinyl-pyrroles active as kinases inhibitors” (Nerviano Medical Sciences S.R.L., priority 2011, dated 2014) can be followed below.

The test system of assay [1] is JAK2 dependent human megakaryoblastic leukemia cell line SET-2. In words: Cell proliferation assay (CellTiter-Glo, 72 hours). The conditions noted are these: Homo sapiens, SET-2 cells. The assay is classed as cell-based. The method, then:
The JAK2 dependent human megakaryoblastic leukemia cell line SET-2 (DSMZ, Braunschweig GERMANY) and the JAK2 independent human chronic myelogenous leukaemia cell line K562 (ECACC, Wiltshire, UK) were cultured in RPMI-1640 medium-Glutamax (Gibco BRL, Gaithesburg, Md., USA), supplemented with 10% fetal bovine serum (FBS) at 37° C. and 5% CO2.
Cell Proliferation Assay:
Approximately 5×10^3 cells were plated into 384 microtiter plate wells in 50 μL of growth media with different concentrations of inhibitors. The cells were incubated at 37° C. and 5% CO2 for 72 hours, then the plates were processed using CellTiter-Glo assay (Promega, Madison, Wis., USA) following the manufacturer's instruction. Briefly 25 μL/well reagent solution is added to each well and after 5 minutes shaking the micro-plates are read by Envision luminometer (PerkinElmer, Waltham, Mass., USA).
Data are analyzed by Symix Assay Explorer software (Symix Technologies Inc.) that provides sigmoidal fitting algorithm of the 8 points dilutions curves for IC50 determination.
(Cellular ATP, detected with luciferase, serves as a proxy for viable cell number.)

Another assay concerns the target T1, JAK2 kinase domain (Homo sapiens, UniProt O60674).
T1 construct: commercially available JAK2 kinase domain; purchased Invitrogen, Eugene, Oreg
In words: Biochemical assay for inhibitors of JAK kinase activity (JAK2, 33P-γ-ATP/dowex resin). The conditions noted are these: JAK2 kinase domain 1 nM, 60 μM ATP. The text has this: Biochemical Assay for Inhibitors of JAK Kinase Activity
Specific JAK2, JAK1 or JAK3 peptide substrates are trans-phosphorylated by JAK kinases in the presence of ATP traced with 33P-γ-ATP. At the end of the phosphorylation reaction, the unreacted ATP, cold and radioactive, is captured by an excess of dowex ion exchange resin that eventually settles by gravity to the bottom of the reaction plate. The supernatant is subsequently withdrawn and transferred into a counting plate that is then evaluated by β-counting.
500 g of wet resin (SIGMA, custom prepared resin DOWEX 1×8 200-400 mesh, 2.5 Kg) are weighed out and diluted 2 to 1 in 150 mM sodium formate, pH 3.00. The resin is allowed to settle down overnight and then the supernatant is discarded. After three washes as above over a couple of days, the resin is allowed to settle and two volumes (with respect to the resin volume) of 150 mM sodium formate buffer are added.
Kinase buffer was composed of 50 mM HEPES pH 7.5 containing 10 mM MgCl2, 2.5 mM DTT, 10 μM Na3VO4 and 0.2 mg/mL BSA.
JAK2 Specific Assay Conditions
The JAK2 kinase assay was run with a final enzyme concentration of 1 nM, in the presence of 60 μM ATP, 3 nM 33P-γ-ATP and 64 μM of substrate BioDBn*306 (Aminoacid sequence: LPLDKDYYVVREPGQ—SEQ ID NO: 1). The peptidic substrate was purchased from American Peptide Company (Sunnyvale, Calif.).
(§1) For IC50 determination, test compounds are received as a 1 mM solution in 100% DMSO, distributed into 96 well plates: compounds are then plated into the first column of a microtiter plate (A1 to G1), 100 μL/well.
(§2) An automated station for serial dilutions (Biomek FX, Beckman) is used for producing 1:3 dilutions in 100% DMSO, from line A1 to A10, and for all the compounds in the column. Moreover, 4-5 copies of daughter plates are prepared by reformatting 5 μL of this first set of 100% DMSO dilution plates into 384 deep well-plates: one of these plates with the serial dilutions of test compounds will be thawed the day of the experiments, reconstituted at a 3× concentration with water and used in the IC50 determination assays. In a standard experiment, the highest concentration (3×) of all compounds is 30 μM, while the lowest one is 1.5 nM. Each 384 well-plate will contain at least one curve of the standard inhibitor staurosporine and reference wells (total enzyme activity vs. no enzymatic activity) for the Z′ and signal to background evaluation.
384-well plates, V bottom (test plates) are prepared with 5 μL of the compound dilution (3×) and then placed onto a PlateTrak 12 robotized station (Perkin Elmer; the robot has one 384-tip pipetting head for starting the assay plus one 96-tip head for dispensing the resin) together with one reservoir for the Enzyme mix (3×) and one for the ATP mix (3×). At the start of the run, the robot aspirates 5 μL of ATP mix, makes an air gap inside the tips (3 μl) and aspirates 5 μL of JAK2 mix. The following dispensation into the plates plus 3 cycles of mixing, done by the robot itself, starts the kinase reaction. At this point, the correct concentrations are restored for all the reagents. The robot incubates the plates for 60 minutes at room temperature, and then stops the reaction by pipetting 60 μL of dowex resin suspension into the reaction mix. In order to avoid tip clogging, wide bore tips are used to dispense the resin suspension. Three cycles of mixing are done immediately after the addition of the resin. Another mixing cycle is performed after all the plates are stopped, this time using normal tips: the plates are then allowed to rest for about one hour in order to allow resin sedimentation. At this point, 27 μL of the supernatant are transferred into 384-Optiplates (Perkin-Elmer), with 50 μL of Microscint 40 (Perkin-Elmer); after 5 min of orbital shaking the plates are read on a Perkin-Elmer Top Count radioactivity counter. […]

The next assay has as its target T2, Lyn full length (Homo sapiens, UniProt P07948).
T2 construct: The assay has been performed using Lyn full length
The assay is described as follows: Biochemical assay for inhibitors of Lyn (Src family) kinase activity. The conditions noted are these: Lyn full length 1 nM, 25 μM ATP.
Description: Biochemical Assay for Inhibitors of Lck and Lyn (Src Family) Kinases Activity
Specific Lck and Lyn substrates are trans-phosphorylated by Lck and Lyn kinases in the presence of ATP traced with 33P-γ-ATP. At the end of the phosphorylation reaction, the unreacted ATP, cold and radioactive, is captured by an excess of dowex ion exchange resin that eventually settles by gravity to the bottom of the reaction plate. The supernatant is subsequently withdrawn and transferred into a counting plate that is then evaluated by β-counting.
Lyn Specific Assay Conditions
The assay has been performed using Lyn full length (accession number P07948 of UniProtKB/Swiss-Prot database).
Kinase buffer was composed of 50 mM HEPES pH 7.5 containing 3 mM MgCl2, 1 mM DTT, 3 μM Na3VO4, and 0.2 mg/mL BSA.
The Lyn kinase assay was run with a final enzyme concentration of 1 nM, in the presence of 25 μM ATP, 1.5 nM 33P-γ-ATP and 250 μM of substrate ABI 1 (Aminoacid sequence: EAIYAAPFAKKK—SEQ ID NO: 3). The peptidic substrate was purchased from American Peptide Company (Sunnyvale, Calif.).
as §1, §2
384-well plates, V bottom (test plates) are prepared with 5 μL of the compound dilution (3×) and then placed onto a PlateTrak 12 robotized station (Perkin Elmer; the robot has one 384-tip pipetting head for starting the assay plus one 96-tip head for dispensing the resin) together with one reservoir for the Enzyme mix (3×) and one for the ATP mix (3×). At the start of the run, the robot aspirates 5 μL of ATP mix, makes an air gap inside the tips (3 μl) and aspirates 5 μL of JAK2 mix. The following dispensation into the plates plus 3 cycles of mixing, done by the robot itself, starts the kinase reaction. At this point, the correct concentrations are restored for all the reagents. The robot incubates the plates for 60 minutes at room temperature, and then stops the reaction by pipetting 60 μL of dowex resin suspension into the reaction mix. In order to avoid tip clogging, wide bore tips are used to dispense the resin suspension. Three cycles of mixing are done immediately after the addition of the resin. Another mixing cycle is performed after all the plates are stopped, this time using normal tips: the plates are then allowed to rest for about one hour in order to allow resin sedimentation. At this point, 27 μL of the supernatant are transferred into 384-Optiplates (Perkin-Elmer), with 50 μL of Microscint 40 (Perkin-Elmer); after 5 min of orbital shaking the plates are read on a Perkin-Elmer Top Count radioactivity counter.
Data are analyzed by an internally customized version of the SW package “Assay Explorer” that provides sigmoidal fitting of the ten-dilutions curves for IC50 determination in the secondary assays/hit confirmation routines.

The IC50 is the concentration that inhibits the measured activity by half. Low readings indicate inhibition by little substance, high ones a need for much substance.

SMILES strings stand for the structures.

T2 sequence (P07948 whole entry): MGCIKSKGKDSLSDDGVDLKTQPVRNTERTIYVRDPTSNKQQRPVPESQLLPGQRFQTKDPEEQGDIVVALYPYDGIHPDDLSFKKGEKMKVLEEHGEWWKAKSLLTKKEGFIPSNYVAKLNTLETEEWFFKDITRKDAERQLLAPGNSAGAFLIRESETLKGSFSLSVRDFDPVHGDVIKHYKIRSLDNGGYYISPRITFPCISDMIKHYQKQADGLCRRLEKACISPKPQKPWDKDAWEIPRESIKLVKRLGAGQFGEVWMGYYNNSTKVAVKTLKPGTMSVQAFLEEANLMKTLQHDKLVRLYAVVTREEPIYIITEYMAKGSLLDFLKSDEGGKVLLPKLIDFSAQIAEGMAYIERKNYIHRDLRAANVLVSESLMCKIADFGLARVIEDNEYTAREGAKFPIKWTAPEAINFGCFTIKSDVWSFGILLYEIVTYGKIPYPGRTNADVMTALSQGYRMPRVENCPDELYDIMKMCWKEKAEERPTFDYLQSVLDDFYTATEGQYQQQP
T1 sequence (O60674 849-1124 limits assumed): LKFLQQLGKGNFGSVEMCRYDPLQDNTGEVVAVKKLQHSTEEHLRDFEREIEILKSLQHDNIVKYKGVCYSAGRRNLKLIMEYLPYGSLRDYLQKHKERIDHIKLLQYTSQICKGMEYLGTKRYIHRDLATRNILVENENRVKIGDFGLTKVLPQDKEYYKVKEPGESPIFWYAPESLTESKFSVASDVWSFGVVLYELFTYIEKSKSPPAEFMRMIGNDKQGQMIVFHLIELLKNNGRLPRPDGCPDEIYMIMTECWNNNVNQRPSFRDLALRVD

For the molecule `Cc1ccc(Cl)cc1-c1[nH]c(-c2nc(N)ncc2C#Cc2cccc(O)c2)cc1C(N)=O` [compound 2, 5-{2-Amino-5-[(3-hydroxyphenyl)ethynyl]pyrimidin-4-yl}-2-(5-chloro-2-methylphenyl)-1H-pyrrole-3-carboxamide], the IC50 in assay [1] is 520 nM; against JAK2 kinase domain, 2 nM; on Lyn full length it was 6 nM.

As to `Cc1ccc(Cl)cc1-c1[nH]c(-c2nc(N)ncc2C#Cc2cccc(N)c2)cc1C(N)=O` [compound 4, 5-{2-amino-5-[(3-aminophenyl)ethynyl]pyrimidin-4-yl}-2-(5-chloro-2-methylphenyl)-1H-pyrrole-3-carboxamide], the concentration for half-maximal inhibition (IC50) stood at 150 nM in assay [1], 1 nM against JAK2 kinase domain and 1 nM at Lyn full length.

For the molecule `Cc1ccc(Cl)cc1-c1[nH]c(-c2nc(N)ncc2C#Cc2ccccc2N)cc1C(N)=O` [compound 6, 5-{2-Amino-5-[(2-aminophenyl)ethynyl]pyrimidin-4-yl}-2-(5-chloro-2-methylphenyl)-1H-pyrrole-3-carboxamide], the IC50 in assay [1] stood at 240 nM; on JAK2 kinase domain, 1 nM; on Lyn full length, 3 nM.

For the molecule `Cc1ccc(Cl)cc1-c1[nH]c(-c2nc(N)ncc2C#Cc2ccc(N)cc2)cc1C(N)=O` [compound 8, 5-{2-Amino-5-[(4-aminophenyl)ethynyl]pyrimidin-4-yl}-2-(5-chloro-2-methylphenyl)-1H-pyrrole-3-carboxamide], the IC50 in assay [1] was found to be 140 nM; at JAK2 kinase domain it was 1 nM; at Lyn full length, 2 nM.

For the molecule `COc1ccc(N)cc1C#Cc1cnc(N)nc1-c1cc(C(N)=O)c(-c2cc(Cl)ccc2C)[nH]1` [compound 9, 5-{2-Amino-5-[(5-amino-2-methoxyphenyl)ethynyl]pyrimidin-4-yl}-2-(5-chloro-2-methylphenyl)-1H-pyrrole-3-carboxamide], the concentration for half-maximal inhibition (IC50) was 340 nM in assay [1], 1 nM against JAK2 kinase domain and 10 nM against Lyn full length.

As for `Cc1ccc(Cl)cc1-c1[nH]c(-c2nc(N)ncc2C#Cc2ccc(N3CCN(C)CC3)cc2)cc1C(N)=O` [compound 11, 5-(2-Amino-5-{[4-(4-methylpiperazin-1-yl)phenyl]ethynyl}pyrimidin-4-yl)-2-(5-chloro-2-methylphenyl)-1H-pyrrole-3-carboxamide], the half-maximal inhibitory concentration (IC50) in assay [1] came to 90 nM; on JAK2 kinase domain it was 4 nM; at Lyn full length, 8 nM.

For `Cc1ccc(Cl)cc1-c1[nH]c(-c2nc(N)ncc2C#Cc2cccc(NC3CCOCC3)c2)cc1C(N)=O` [compound 13, 5-(2-Amino-5-{[3-(tetrahydro-2H-pyran-4-ylamino)phenyl]ethynyl}pyrimidin-4-yl)-2-(5-chloro-2-methylphenyl)-1H-pyrrole-3-carboxamide], the half-inhibitory concentration (IC50) worked out at 4 nM against JAK2 kinase domain and 8 nM against Lyn full length.

On to `Cc1ccc(Cl)cc1-c1[nH]c(-c2nc(N)ncc2C#Cc2cccc(NCCO)c2)cc1C(N)=O` [compound 15, 5-[2-Amino-5-({3-[(2-hydroxyethyl)amino]phenyl}ethynyl)pyrimidin-4-yl]-2-(5-chloro-2-methylphenyl)-1H-pyrrole-3-carboxamide], for which the concentration for half-maximal inhibition (IC50) in assay [1] turned out to be 240 nM; against JAK2 kinase domain, 2 nM; against Lyn full length, 5 nM.

Consider `COc1ccc(NC2CCN(C)CC2)cc1C#Cc1cnc(N)nc1-c1cc(C(N)=O)c(-c2cc(Cl)ccc2C)[nH]1` [compound 22, 5-[2-Amino-5-({2-methoxy-5-[(1-methylpiperidin-4-yl)amino]phenyl}ethynyl)pyrimidin-4-yl]-2-(5-chloro-2-methylphenyl)-1H-pyrrole-3-carboxamide], for which the IC50 in assay [1] is 430 nM; on JAK2 kinase domain it was 2 nM; on Lyn full length it was 9 nM.

Turning to `Cc1ccc(Cl)cc1-c1[nH]c(-c2nc(N)ncc2C#Cc2cccc(CN3CCN(C)CC3)c2)cc1C(N)=O` [compound 24, 5-[2-Amino-5-({3-[(4-methylpiperazin-1-yl)methyl]phenyl}ethynyl)pyrimidin-4-yl]-2-(5-chloro-2-methylphenyl)-1H-pyrrole-3-carboxamide], the results for the IC50 (in assay [1]; on JAK2 kinase domain; on Lyn full length) were 330 nM, 2 nM and 5 nM, respectively.

Turning to `Cc1ccc(Cl)cc1-c1[nH]c(-c2nc(N)ncc2C#Cc2ccc(N3CCC(N4CCN(C)CC4)CC3)cc2)cc1C(N)=O` [compound 25, 5-[2-Amino-5-({4-[4-(4-methylpiperazin-1-yl)piperidin-1-yl]phenyl}ethynyl)pyrimidin-4-yl]-2-(5-chloro-2-methylphenyl)-1H-pyrrole-3-carboxamide], the IC50 in assay [1] was 170 nM; at JAK2 kinase domain it was 2 nM; on Lyn full length, 10 nM.

Take `Cc1ccc(Cl)cc1-c1[nH]c(-c2nc(N)ncc2C#Cc2cccc(C(=O)N3CCN(C)CC3)c2)cc1C(N)=O` [compound 27, 5-[2-Amino-5-({3-[(4-methylpiperazin-1-yl)carbonyl]phenyl}ethynyl)pyrimidin-4-yl]-2-(5-chloro-2-methylphenyl)-1H-pyrrole-3-carboxamide]: the IC50 was found to be 580 nM in assay [1], 1 nM against JAK2 kinase domain and 1 nM on Lyn full length.
